# Experimental data: patent publication US12319700B2, “Monohydrate potassium salt of a thienopyridone derivative and its preparation process” (POXEL, priority 2018, dated 2025)
# Legend:
# [1] = test system: diet-induced obesity non-alcoholic steatohepatitis (DIO-NASH) mouse model; experiment: Diet-induced obesity NASH (DIO-NASH) mouse model: effects on liver and adipose tissue metabolism; format: in vivo; conditions: 8 weeks; for change of liver weight compared to ctrl group / decrease in hepatic stellate cell activation (aSMA positive staining) / decrease in plasma free fatty acid level / increase of PGCl-α protein expression in AT / reduction of fat pad mass / reduction of liver TG content / hormone-sensitive lipase P-HSLser565 / down-regulation of fibrotic gene expression (type I collagen): p<0.01; for hormone-sensitive lipase P-HSLser563 / hormone-sensitive lipase P-HSLser565: adipose tissue; for down-regulation of fibrotic gene expression (type I collagen): liver
# Procedure: (§1) • The effects of the monohydrate potassium salt of formula (I) (or “Compound (I)”) on liver and adipose tissue (AT) metabolism in a diet-induced obesity non-alcoholic steatohepatitis (DIO-NASH) mouse model are reported here.
# (§2) After 41 weeks, only DIO-NASH mice with biopsy-confirmed steatosis (score ≥2) and fibrosis (stage ≥1) were included and received orally (n=12) vehicle (ctrl), compound (I) 35 or 75 mg/kg twice daily for 8 weeks.
# [2] = test system: AMPK; experiment: AMPK activity (P-AMPK/AMPK) in liver and visceral adipose tissue of DIO-NASH mice; format: in vivo, mouse; conditions: 8 weeks; for increase of AMPK activity in the liver (P-AMPK/AMPK): p<0.05
# Procedure: as §1, §2
# [3] = test system: ob/ob mice; experiment: Dyslipidemia in male obese diabetic dyslipidemic ob/ob mice, 5 weeks of treatment; format: in vivo, mouse
# Procedure: (§3) Effects of Compound (I) in male obese diabetic dyslipidemic ob/ob mice after 5 weeks of treatment.
# (§4) Compound (I) was administered at 25, 50 and 100 mg/kg twice a day by oral route in carboxy methylcellulose 0.5%/Tween 80 (98/2) (n=10). A group of ob/ob mice was treated with carboxy methylcellulose 0.5%/Tween 80 (98/2) as a control group.
# [4] = test system: ob/ob mice; experiment: Body weight in male obese diabetic dyslipidemic ob/ob mice, 5 weeks of treatment; format: in vivo, mouse
# Procedure: as §3, §4
# [5] = test system: Spontaneous Hypertensive Rat (SHR); experiment: Arterial pressure by telemetry in conscious unrestrained Spontaneous Hypertensive Rat (SHR); format: in vivo; conditions: 150 mg/kg bid for 5 days, over 24 h on the 5th day
# Procedure: The effects of Compound (I) on arterial pressure was measured in conscious unrestrained well-known rat model of hypertension, the Spontaneous Hypertensive Rat (SHR), using telemetry. SHR aged of 21-22 weeks present a higher arterial pressure compared to healthy Wistar rats: systolic arterial pressure was 200 mmHg vs 120 mmHg in Wistar rats.
# Four male SHR were submitted to surgery to implant a blood pressure catheter into the abdominal aorta. The telemetry transmitter was attached to the peritoneum. Ten days after recovery, the same animal received vehicle or Compound (I) 150 mg/kg bid administered for 5 days, 5 weeks apart. Systolic, diastolic and mean arterial pressures were recorded during 24 h, the 5th day of treatment.
# [6] = 50 mg/kg twice a day oral, p<0.001
# [7] = 100 mg/kg twice a day oral, p<0.001
smiles,measurement,setting,value
"O=c1[nH]c2sc(Cl)c(-c3ccc4c(c3O)CCCC4)c2c([O-])c1-c1ccccc1.[K+] [Compound (I), monohydrate potassium salt of 2-chloro-4-hydroxy-3-(5-hydroxytetralin-6-yl)-5-phenyl-7H-thieno[2,3-b]pyridin-6-one]",reduction of NAFLD Activity Score (NAS),"[1]; 35 mg/kg orally twice daily, from 6.6, p<0.01",−32%
same,change of liver weight compared to ctrl group,[1]; 35 mg/kg orally twice daily,−23%
same,decrease in hepatic stellate cell activation (aSMA positive staining),[1]; 35 mg/kg orally twice daily,−34%
same,decrease in plasma free fatty acid level,[1]; 35 mg/kg orally twice daily,−37%
same,increase of PGCl-α protein expression in AT,[1]; 35 mg/kg orally twice daily,+321%
same,reduction of fat pad mass,[1]; 35 mg/kg orally twice daily,−25%
same,reduction of liver TG content,[1]; 35 mg/kg orally twice daily,−36%
same,NAFLD Activity Score (NAS) after treatment,"[1]; 35 mg/kg orally twice daily, from 6.6",4.5
same,reduction of NAFLD Activity Score (NAS),"[1]; 75 mg/kg orally twice daily, from 6.7, p<0.01",−44%
same,change of liver weight compared to ctrl group,[1]; 75 mg/kg orally twice daily,−33%
same,decrease in hepatic stellate cell activation (aSMA positive staining),[1]; 75 mg/kg orally twice daily,−39%
same,decrease in plasma free fatty acid level,[1]; 75 mg/kg orally twice daily,−38%
same,increase of PGCl-α protein expression in AT,[1]; 75 mg/kg orally twice daily,+409%
same,reduction of fat pad mass,[1]; 75 mg/kg orally twice daily,−37%
same,reduction of liver TG content,[1]; 75 mg/kg orally twice daily,−42%
same,decrease of MCP-1 gene expression in AT,"[1]; 75 mg/kg orally twice daily, p<0.05",−55%
same,NAFLD Activity Score (NAS) after treatment,"[1]; 75 mg/kg orally twice daily, from 6.7",3.8
same,hormone-sensitive lipase P-HSLser563,[1]; 35 mg/kg orally twice daily,−67%
same,hormone-sensitive lipase P-HSLser565,[1]; 35 mg/kg orally twice daily,+416%
same,hormone-sensitive lipase P-HSLser563,[1]; 75 mg/kg orally twice daily,−52%
same,hormone-sensitive lipase P-HSLser565,[1]; 75 mg/kg orally twice daily,+425%
same,down-regulation of fibrotic gene expression (type I collagen),[1]; 35 mg/kg orally twice daily,−65%
same,down-regulation of fibrotic gene expression (type I collagen),[1]; 75 mg/kg orally twice daily,−68%
same,AMPK activation in visceral AT (P-AMPK/AMPK),"[2]; 35 mg/kg orally twice daily, ns",+130%
same,increase of AMPK activity in the liver (P-AMPK/AMPK),[2]; 35 mg/kg orally twice daily,+128%
same,AMPK activation in visceral AT (P-AMPK/AMPK),"[2]; 75 mg/kg orally twice daily, p<0.01",+152%
same,increase of AMPK activity in the liver (P-AMPK/AMPK),[2]; 75 mg/kg orally twice daily,+143%
same,decrease of plasma FFA,"[3]; 25 mg/kg twice a day oral, NS",−14%
same,decrease of plasma triglyceride,"[3]; 25 mg/kg twice a day oral, NS",−19%
same,increase in HDL cholesterol,"[3]; 25 mg/kg twice a day oral, NS",+12%
same,decrease of plasma triglyceride,[3]; [6],−40%
same,increase in HDL cholesterol,[3]; [6],+31%
same,decrease of plasma FFA,"[3]; 50 mg/kg twice a day oral, p<0.05",−35%
same,decrease of plasma FFA,"[3]; 100 mg/kg twice a day oral, NS",−21%
same,decrease of plasma triglyceride,[3]; [7],−43%
same,increase in HDL cholesterol,[3]; [7],+32%
same,decrease of body weight compared to day 1,[4]; 25 mg/kg twice a day oral,−17%
same,decrease of body weight compared to day 1,[4]; 50 mg/kg twice a day oral,−24%
same,reduction of diastolic arterial pressure (DAP) compared to vehicle-treated SHR,[5],−17 mmHg
same,reduction of mean arterial pressure (MAP) compared to vehicle-treated SHR,[5],−18 mmHg
same,reduction of systolic arterial pressure (SAP) compared to vehicle-treated SHR,[5],−19 mmHg
